Results as given in ChEMBL document CHEMBL5143584, “A dual aurora and lim kinase inhibitor reduces glioblastoma proliferation and invasion” (Bioorg Med Chem Lett, 2022).
Activity calls are given as the source filed them. No cut-off for these calls is given here.

Columns and labels:
[1] = system: GBM; experiment: Antiproliferative activity against fluorescently labelled human GBM cells are co-cultured with mature brain organoids differentiated from iPSCs assessed as reduction in total number of GBM cells by FACS; type: functional, cell-based
[2] = target: Aurora kinase B (Homo sapiens, UniProt Q96GD4); experiment: Inhibition of AURKB (unknown origin)
Aurora kinase B, sequence (Q96GD4 whole entry): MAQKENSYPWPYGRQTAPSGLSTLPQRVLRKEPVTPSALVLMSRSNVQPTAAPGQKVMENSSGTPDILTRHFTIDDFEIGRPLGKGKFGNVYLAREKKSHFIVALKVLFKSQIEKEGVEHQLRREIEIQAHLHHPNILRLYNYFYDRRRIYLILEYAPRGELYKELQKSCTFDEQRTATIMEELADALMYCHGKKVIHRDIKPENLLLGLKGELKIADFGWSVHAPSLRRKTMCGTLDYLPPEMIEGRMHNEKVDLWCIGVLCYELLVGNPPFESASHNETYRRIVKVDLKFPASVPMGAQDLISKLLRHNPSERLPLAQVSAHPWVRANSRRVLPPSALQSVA

[3] = Antiproliferative activity against human GBM22 cells assessed as inhibition of cell proliferation by CellTiter-Glo ATP content assay; type: functional, cell-based; conditions: GBM
[4] = Antiproliferative activity against human GBM22 cells assessed as inhibition of cell proliferation incubated for 48 hrs by live/dead fluorescence imaging-based assay; type: functional; conditions: GBM
[5] = Antiproliferative activity against human GBM22 cells assessed as inhibition of cell proliferation incubated for 24 hrs by live/dead fluorescence imaging-based assay; type: functional; conditions: GBM
[6] = target: T1, Aurora kinase A (Homo sapiens, UniProt O14965); experiment: Inhibition of AURKA (unknown origin)
T1 sequence (O14965 whole entry): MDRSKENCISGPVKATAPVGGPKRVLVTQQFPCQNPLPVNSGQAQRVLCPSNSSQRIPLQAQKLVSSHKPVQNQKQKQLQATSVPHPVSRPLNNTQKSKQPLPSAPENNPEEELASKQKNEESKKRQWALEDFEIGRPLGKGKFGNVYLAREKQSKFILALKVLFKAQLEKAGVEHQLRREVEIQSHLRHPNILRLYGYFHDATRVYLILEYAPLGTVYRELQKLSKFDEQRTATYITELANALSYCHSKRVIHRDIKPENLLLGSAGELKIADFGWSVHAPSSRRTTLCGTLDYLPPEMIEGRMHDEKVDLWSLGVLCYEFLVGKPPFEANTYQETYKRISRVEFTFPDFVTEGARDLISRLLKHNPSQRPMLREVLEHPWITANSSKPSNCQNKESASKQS

[7] = system: GBM; experiment: Anti-invasion activity against fluorescently labelled human GBM cells are co-cultured with mature brain organoids differentiated from iPSCs assessed as reduction in number of invading GBM cells at 500 nM incubated for 10 days by fluorescent confocal microscopy; type: functional, cell-based; conditions: time 10.0 day
[8] = Toxicity in human mature brain organoids differentiated from iPSCs assessed as decrease in organoid volume and surface area at 500 nM incubated for 10 days; type: cell-based; conditions: 240 h, 0.5 µM, time 10 day
[9] = target: LIM domain kinase 1 (Homo sapiens, UniProt P53667); experiment: Inhibition of LIMK1 (unknown origin)
LIM domain kinase 1, sequence (P53667 whole entry, the tested form may be a part): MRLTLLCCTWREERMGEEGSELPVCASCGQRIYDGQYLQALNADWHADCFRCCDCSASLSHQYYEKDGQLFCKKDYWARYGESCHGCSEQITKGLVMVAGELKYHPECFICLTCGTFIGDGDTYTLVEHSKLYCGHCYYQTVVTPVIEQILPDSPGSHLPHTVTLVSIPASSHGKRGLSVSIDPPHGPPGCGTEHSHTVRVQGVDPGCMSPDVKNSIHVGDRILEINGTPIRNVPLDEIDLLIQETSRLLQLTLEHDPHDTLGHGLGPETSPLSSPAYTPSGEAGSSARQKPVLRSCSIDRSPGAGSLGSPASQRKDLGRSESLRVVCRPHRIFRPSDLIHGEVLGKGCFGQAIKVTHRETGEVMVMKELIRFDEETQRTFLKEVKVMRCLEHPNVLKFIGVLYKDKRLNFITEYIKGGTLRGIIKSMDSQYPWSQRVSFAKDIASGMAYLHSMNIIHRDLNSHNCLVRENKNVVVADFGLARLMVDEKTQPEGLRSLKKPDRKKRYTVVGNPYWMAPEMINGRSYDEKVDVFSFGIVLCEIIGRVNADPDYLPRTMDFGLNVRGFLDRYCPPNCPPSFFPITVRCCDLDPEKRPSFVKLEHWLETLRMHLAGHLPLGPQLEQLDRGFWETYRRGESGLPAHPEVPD

[10] = system: GBM; experiment: Antiproliferative activity against fluorescently labelled human GBM cells are co-cultured with mature brain organoids differentiated from iPSCs assessed as reduction in total number of GBM cells at 500 nM incubated for 10 days by fluorescent confocal microscopy; type: functional, cell-based; conditions: time 10.0 day
[11] = system: GBM; experiment: Antiproliferative activity against fluorescently labelled human GBM cells are co-cultured with mature brain organoids differentiated from iPSCs assessed as reduction in total number of GBM cells incubated for 10 days by fluorescent confocal microscopy; type: functional, cell-based; conditions: time 10.0 day
[12] = system: GBM; experiment: Anti-invasion activity against fluorescently labelled human GBM cells are co-cultured with mature brain organoids differentiated from iPSCs assessed as reduction in number of invading GBM cells incubated for 10 days by fluorescent confocal microscopy; type: functional, cell-based; conditions: time 10.0 day
[13] = Toxicity in human mature brain organoids differentiated from iPSCs assessed as decrease in organoid volume and surface area incubated for 10 days; type: cell-based; conditions: 240 h, time 10 day

IC50 [2] | IC50 [6] | IC50 [9] | Structure (SMILES) | Activity [1] | IC50 [3] | IC50 [4] | IC50 [5] | Activity [7] | Activity [8] | Activity [10] | Activity [11] | Activity [12] | Activity [13]
17 nM | 72 nM | 137 nM | CC(C)n1cc(Nc2ncc3ccc(=O)n(C(C)C)c3n2)cn1 | Active | 5340 nM | 1530 nM | 2460 nM | Active | Toxic | Active | – | – | –
– | – | – | CC(C)C(=O)Nc1ncc(-c2cc(C(F)F)nn2-c2c(Cl)cccc2Cl)s1 | – | – | – | – | – | – | – | Active | Active | Non-Toxic
– | – | – | Cc1csc(-c2nnc(Nc3ccc(Oc4ncccc4-c4ccnc(N)n4)cc3)c3ccccc23)c1 [AMG-900] | – | – | – | – | – | – | – | Active | – | Non-Toxic
